IC50 data for 25 compounds are collected here from patent US20140155376A1, “PYRROLOPYRAZINE KINASE INHIBITORS” (Hoffmann-La Roche Inc., priority 2010, published 2014).

For the assay, the target named is T1, JAK3 (recombinant human kinase domain; h-jak3(810-1124)) (Homo sapiens, UniProt P52333).
T1 construct: h-jak3(810- 1124)-sf9-c; made in house; host or cells: Sf9 insect cells
The assay is described as follows: Determination of IC50 of Janus Kinase (JAK) inhibition: JAK3, radioactive end-point assay with 33P-ATP. Format: biochemical. The following applies: JAK3 kinase domain; ATP 1.5 uM, peptide 50 uM, 20 minutes, room temperature, 10% DMSO; read-out: Ic50 h-jak3(810-1124)-sf9-c:no additive.

T1 sequence (P52333 810-1124): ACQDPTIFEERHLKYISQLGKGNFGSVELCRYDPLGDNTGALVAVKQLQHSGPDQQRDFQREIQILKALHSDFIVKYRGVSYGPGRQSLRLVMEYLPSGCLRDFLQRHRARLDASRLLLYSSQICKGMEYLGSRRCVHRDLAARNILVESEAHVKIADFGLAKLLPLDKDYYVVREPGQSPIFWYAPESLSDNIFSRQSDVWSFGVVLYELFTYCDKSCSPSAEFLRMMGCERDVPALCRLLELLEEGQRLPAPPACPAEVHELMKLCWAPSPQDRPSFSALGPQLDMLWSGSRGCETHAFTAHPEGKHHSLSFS

A word on the IC50: it is the concentration that gives 50% inhibition. `CC(C)(O)C(C)(C)NC(=O)c1c[nH]c2ncc(C3CC3)nc12` [Example I-79, 2-Cyclopropyl-5H-pyrrolo[2,3-b]pyrazine-7-carboxylic acid (2-hydroxy-1,1,2-trimethyl-propyl)-amide]: the IC50 came to 40.7 nM.
In the case of `O=C(NC(C1CC1)C1CC1)c1c[nH]c2ncc(C3CC3)nc12` [Example I-80, 2-Cyclopropyl-5H-pyrrolo[2,3-b]pyrazine-7-carboxylic acid dicyclopropyl-methyl-amide] it was 3.9 nM; in that of `CC(C)(C#N)C(NC(=O)c1c[nH]c2ncc(C3CC3)nc12)C1CC1` (stereo not shown) [Example I-81, 2-Cyclopropyl-5H-pyrrolo[2,3-b]pyrazine-7-carboxylic acid (2-cyano-1-cyclopropyl-2,2-dimethyl-ethyl)-amide], 16 nM.
As to `C[C@@H](NC(=O)c1c[nH]c2ncc(C3CC3)nc12)C1(O)CCCC1` [Example I-82, 2-Cyclopropyl-5H-pyrrolo[2,3-b]pyrazine-7-carboxylic acid [(R)-1-(1-hydroxy-cyclopentyl)-ethyl]-amide], the IC50 was found to be 15.2 nM.
With `CC[C@@](C)(O)[C@@H](C)NC(=O)c1c[nH]c2ncc(C3CC3)nc12` [Example I-83, 2-Cyclopropyl-5H-pyrrolo[2,3-b]pyrazine-7-carboxylic acid ((1R,2R)-2-hydroxy-1,2-dimethyl-butyl)-amide] the figure was 47.2 nM.
For the compound `CCC[C@@](C)(O)[C@@H](C)NC(=O)c1c[nH]c2ncc(C3CC3)nc12` [Example I-84, 2-Cyclopropyl-5H-pyrrolo[2,3-b]pyrazine-7-carboxylic acid ((1R,2R)-2-hydroxy-1,2-dimethyl-pentyl)-amide], the IC50 is 65.1 nM.
With `CC(NC(=O)c1c[nH]c2ncc(C3CC3)nc12)C1CCOCC1` (stereo not shown) [Example I-85, 2-Cyclopropyl-5H-pyrrolo[2,3-b]pyrazine-7-carboxylic acid [1-(tetrahydro-pyran-4-yl)-ethyl]-amide] the figure was 72.5 nM; with `O=C(N[C@@H](CC1CCCCC1)[C@@H](O)[C@@H](O)C1CC1)c1c[nH]c2ncc(C3CC3)nc12` [Example I-88, 2-Cyclopropyl-5H-pyrrolo[2,3-b]pyrazine-7-carboxylic acid ((1S,2R,3S)-1-cyclohexylmethyl-3-cyclopropyl-2,3-dihydroxy-propyl)-amide], 1410 nM; with `CC(C)C(C#N)NC(=O)c1c[nH]c2ncc(C3CC3)nc12` (stereo not shown) [Example I-89, 2-Cyclopropyl-5H-pyrrolo[2,3-b]pyrazine-7-carboxylic acid (1-cyano-2-methyl-propyl)-amide], 13.4 nM.
For the compound `N#CC(NC(=O)c1c[nH]c2ncc(C3CC3)nc12)C1CC1` (stereo not shown) [Example I-90, 2-Cyclopropyl-5H-pyrrolo[2,3-b]pyrazine-7-carboxylic acid (cyano-cyclopropyl-methyl)-amide], the IC50 was found to be 14.5 nM.
With `C[C@@H](NC(=O)c1c[nH]c2ncc(C3CC3)nc12)[C@](C)(O)CC#N` [Example I-91, 2-Cyclopropyl-5H-pyrrolo[2,3-b]pyrazine-7-carboxylic acid ((1R,2R)-3-cyano-2-hydroxy-1,2-dimethyl-propyl)-amide] the figure was 38.7 nM; with `CC(C)(C(=O)O)C(NC(=O)c1c[nH]c2ncc(C3CC3)nc12)C1CC1` (stereo not shown) [Example I-92, 3-Cyclopropyl-3-[(2-cyclopropyl-5H-pyrrolo[2,3-b]pyrazine-7-carbonyl)-amino]-2,2-dimethyl-propionic acid], 95.1 nM.
In the case of `CC(C)(O)C(NC(=O)c1c[nH]c2ncc(C3CC3)nc12)C(F)(F)F` (stereo not shown) [Example I-93, 2-Cyclopropyl-5H-pyrrolo[2,3-b]pyrazine-7-carboxylic acid (2-hydroxy-2-methyl-1-trifluoromethyl-propyl)-amide] it was 57.8 nM; in that of `CC(C)(O)[C@@H](NC(=O)c1c[nH]c2ncc(C3CC3)nc12)C1CCCCC1` [Example I-94, 2-Cyclopropyl-5H-pyrrolo[2,3-b]pyrazine-7-carboxylic acid ((S)-1-cyclohexyl-2-hydroxy-2-methyl-propyl)-amide], 878 nM.
In the case of `CC(NC(=O)c1c[nH]c2ncc(C3CC3)nc12)C1CCCC1` (stereo not shown) [Example I-95, 2-Cyclopropyl-5H-pyrrolo[2,3-b]pyrazine-7-carboxylic acid (1-cyclopentyl-ethyl)-amide] it was 9.99 nM.
As for `C[C@H](NC(=O)c1c[nH]c2ncc(C3CC3)nc12)C1(O)CCCC1` [Example I-97, 2-Cyclopropyl-5H-pyrrolo[2,3-b]pyrazine-7-carboxylic acid [(S)-1-(1-hydroxy-cyclopentyl)-ethyl]-amide], the IC50 was determined as 18 nM.
In the case of `CC(C)(CNC(=O)c1c[nH]c2ncc(C3CC3)nc12)CS(C)(=O)=O` [Example I-98, 2-Cyclopropyl-5H-pyrrolo[2,3-b]pyrazine-7-carboxylic acid (3-methanesulfonyl-2,2-dimethyl-propyl)-amide] it was 11.1 nM; in that of `CCn1cc(-c2cnc3[nH]cc(C(=O)N[C@H](C)C(C)(C)O)c3n2)cn1` [Example I-99, 2-(1-Ethyl-1H-pyrazol-4-yl)-5H-pyrrolo[2,3-b]pyrazine-7-carboxylic acid ((R)-2-hydroxy-1,2-dimethyl-propyl)-amide], 6.61 nM; in that of `C[C@@H](NC(=O)c1c[nH]c2ncc(C3CC3)nc12)C1(C#N)CCCC1` [Example I-100, 2-Cyclopropyl-5H-pyrrolo[2,3-b]pyrazine-7-carboxylic acid [(R)-1-(1-cyano-cyclopentyl)-ethyl]-amide], 38.5 nM.
For the compound `C[C@H](NC(=O)c1c[nH]c2ncc(C3CC3)nc12)C1(C#N)CCCC1` [Example I-101, 2-Cyclopropyl-5H-pyrrolo[2,3-b]pyrazine-7-carboxylic acid [(S)-1-(1-cyano-cyclopentyl)-ethyl]-amide], the IC50 came out at 12 nM.
On to `C[C@@H](NC(=O)c1c[nH]c2ncc(-c3cnn(C)c3)nc12)C(C)(C)O` [Example I-102, 2-(1-Methyl-1H-pyrazol-4-yl)-5H-pyrrolo[2,3-b]pyrazine-7-carboxylic acid ((R)-2-hydroxy-1,2-dimethyl-propyl)-amide], for which the IC50 turned out to be 10.3 nM.
With `C[C@@H](NC(=O)c1c[nH]c2ncc(-c3cccs3)nc12)C(C)(C)O` [Example I-103, 2-Thiophen-2-yl-5H-pyrrolo[2,3-b]pyrazine-7-carboxylic acid ((R)-2-hydroxy-1,2-dimethyl-propyl)-amide] the figure was 7.25 nM; with `O=C(N[C@H](C1CC1)C1(O)CCCC1)c1c[nH]c2ncc(C3CC3)nc12` [Example I-104, 2-Cyclopropyl-5H-pyrrolo[2,3-b]pyrazine-7-carboxylic acid [(R)-cyclopropyl-(1-hydroxy-cyclopentyl)-methyl]-amide], 16.3 nM.
With `CC(NC(=O)c1c[nH]c2ncc(Oc3ccc(F)cc3F)nc12)C1CC1` (stereo not shown) [Example I-105, 2-(2,4-Difluoro-phenoxy)-5H-pyrrolo[2,3-b]pyrazine-7-carboxylic acid (1-cyclopropyl-ethyl)-amide] the figure was 103 nM.
Consider `N#CCC(NC(=O)c1c[nH]c2ncc(C3CC3)nc12)C1CC1` (stereo not shown) [Example I-106, 2-Cyclopropyl-5H-pyrrolo[2,3-b]pyrazine-7-carboxylic acid (2-cyano-1-cyclopropyl-ethyl)-amide], for which the IC50 came out at 14.7 nM.
